Molecular target: T1, YsxC (Bacillus subtilis, UniProt P38424)
T1 construct: gene engB; full-length YsxC, 22 kDa, N-terminal His6 tag (pET15b-ysxC) cleaved by thrombin, expressed in E. coli BL21(DE3)
Experiment: cryo-EM structure of the complex on the […].5S(YsxC) particle
Assay type: binding
Conditions: 2 mM GMPPNP, 15 mM MgCl2, 50 mM NH4Cl, pH 7.5, 37 °C; nucleotide site; non-hydrolyzable GTP analogue

T1 sequence (P38424 whole entry): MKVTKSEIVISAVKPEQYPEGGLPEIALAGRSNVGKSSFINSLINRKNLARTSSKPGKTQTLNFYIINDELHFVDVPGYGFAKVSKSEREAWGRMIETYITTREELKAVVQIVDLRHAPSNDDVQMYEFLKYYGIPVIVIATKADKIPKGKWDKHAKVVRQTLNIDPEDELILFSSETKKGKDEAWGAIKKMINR

In the case of `Nc1nc2c(ncn2[C@@H]2O[C@H](COP(=O)(O)OP(=O)(O)NP(=O)(O)O)[C@@H](O)[C@H]2O)c(=O)[nH]1` [GMPPNP], the “cryo-EM structure of the complex on the 44.5S(YsxC) particle” value is reported as “the density corresponding to the GMPPNP nucleotide (colored in blue), are indicated”.

Reference: PMC12560758, “YsxC is a placeholder for ribosomal protein uL2 during 50S ribosomal subunit assembly” (Nucleic Acids Research, 2025)
